Assays:
[1] = NOVARTIS: Cytotoxicity against human hepatocellular carcinoma cell line (Huh7); format: toxicity, cell-based, Huh-7; conditions: Huh7 cells (hepatocellular carcinoma cell line)
[2] = system: Plasmodium falciparum; assay: NOVARTIS: Inhibition of Plasmodium falciparum W2 (drug-resistant) proliferation in erythrocyte-based infection assay; format: functional, organism-based; conditions: Plasmodium falciparum, W2; read-out: EC50
[3] = system: Plasmodium falciparum; assay: NOVARTIS: Inhibition of Plasmodium falciparum 3D7 (drug-susceptible) proliferation in erythrocyte-based infection assay; format: functional, organism-based; conditions: Plasmodium falciparum, 3D7

CCc1nn(-c2ccccc2)c2nc(-c3cc(Br)ccc3O)c3cc(OC)c(OC)cc3c12
CC50 [1]: > 100000 nM | EC50 [2]: 192 nM | EC50 [3]: 466 nM

O=C(Oc1ccc(N2C(=O)c3ccc([N+](=O)[O-])cc3C2=O)cc1)c1ccco1
CC50 [1]: > 100000 nM | EC50 [2]: > 10000 nM | EC50 [3]: > 10000 nM

CC=C[C@H]1O[C@@](O)([C@@H](C)C(O)C(C)[C@H]2OC(=O)C(OC)=CC(C)=C[C@@H](C)[C@@H](O)[C@@H](C)[C@@H](O)C(C)CC(C)=CC=C[C@@H]2OC)C[C@@H](O[C@H]2C[C@@H](O)[C@H](OC(N)=O)[C@@H](C)O2)[C@@H]1C (some centres not stated)
CC50 [1]: > 10000 nM | EC50 [2]: 240 nM | EC50 [3]: > 1670 nM

CC(NS(=O)(=O)c1ccccc1)C(c1cccs1)N1CCN(c2ccccc2F)CC1 (configuration not stated)
CC50 [1]: > 100000 nM | EC50 [2]: 6350 nM | EC50 [3]: > 12500 nM

CCc1ccc(C(=O)N(C)CCCNc2ccnc3cc(Cl)ccc23)cc1
CC50 [1]: 2860 nM | EC50 [2]: 250 nM | EC50 [3]: 337 nM

COc1ccc(OC)c(-c2ccc(O)c(CNC3CCCCCCC3)c2)c1
CC50 [1]: > 10000 nM | EC50 [2]: 952 nM | EC50 [3]: 767 nM

CC(=Cc1sc2ccc3occc3c2[n+]1CCO)C=C1Sc2ccc3ccoc3c2N1CCO.CCC(=Cc1sc2ccc3ccccc3c2[n+]1C)C=C1Sc2ccc3ccccc3c2N1C
CC50 [1]: > 10000 nM | EC50 [2]: 144 nM | EC50 [3]: > 373 nM

Cc1cc(C)cc(-n2c(C)cc(/C=C3\SC(=Nc4ccc(Br)cc4)NC3=O)c2C)c1
CC50 [1]: > 100000 nM | EC50 [2]: 4450 nM | EC50 [3]: 2580 nM

CCN1CCN(Cc2c(O)ccc3c(=O)c(Oc4cccc(C)c4)c(C(F)(F)F)oc23)CC1
CC50 [1]: > 100000 nM | EC50 [2]: 161 nM | EC50 [3]: 1130 nM

Cc1cc(C)cc(C(=O)Nc2c3c(nn2-c2cccc(C)c2C)CS(=O)(=O)C3)c1
CC50 [1]: > 10000 nM | EC50 [2]: 358 nM | EC50 [3]: 329 nM

CCN1CCN(c2ccc(Nc3c4ccccc4nc4ccccc34)cc2)CC1
CC50 [1]: 17400 nM | EC50 [2]: 160 nM | EC50 [3]: 50.7 nM

COc1cc(CN2CC3CC(C2)c2cccc(=O)n2C3)ccc1O (configuration not stated)
CC50 [1]: > 100000 nM | EC50 [2]: 1210 nM | EC50 [3]: > 12500 nM

Cc1cccc(N(C)c2nc3ccccc3c3nnc(C)n23)c1
CC50 [1]: > 100000 nM | EC50 [2]: 134 nM | EC50 [3]: 119 nM

Cc1nc(C23CC4CC(CC(C4)C2)C3)cs1
CC50 [1]: > 100000 nM | EC50 [2]: 1860 nM | EC50 [3]: > 12500 nM

CCN(CC)c1ccc(/C=C/C23NC(=O)CCN2c2ccc(C)cc2C3(C)C)cc1 (configuration not stated)
CC50 [1]: > 10100 nM | EC50 [2]: 1210 nM | EC50 [3]: 1620 nM

O=C(Nc1nc2ccccc2s1)c1ccc(S(=O)(=O)N2CCOCC2)cc1
CC50 [1]: > 10000 nM | EC50 [2]: > 46.1 nM | EC50 [3]: > 1250 nM

O=C(NC(CN1CCCC1)c1ccccc1)C1CCN(S(=O)(=O)c2ccc(Cl)cc2)CC1 (configuration not stated)
CC50 [1]: 36800 nM | EC50 [2]: 648 nM | EC50 [3]: 160 nM

CCCCc1ccc(NC(C)=O)cc1
CC50 [1]: 4210 nM | EC50 [2]: 334 nM | EC50 [3]: 214 nM

Oc1c(C(Nc2ccccn2)c2cccc(Oc3ccccc3)c2)ccc2cccnc12 (configuration not stated)
CC50 [1]: 62800 nM | EC50 [2]: 320 nM | EC50 [3]: 328 nM

CC1=C(C(=O)OC2CCCCC2)C(c2ccc(F)cc2)C2=C(CC(c3ccccc3)CC2=O)N1 (configuration not stated)
CC50 [1]: > 100000 nM | EC50 [2]: 653 nM | EC50 [3]: 3690 nM

O=C(/C=C\c1ccccc1)Nc1ccc2[nH]c(-c3ccc(NC(=O)/C=C/c4ccccc4)cc3)nc2c1
CC50 [1]: > 10000 nM | EC50 [2]: 425 nM | EC50 [3]: 254 nM

CC(C)(C)NCC(O)Cn1c2ccc(Cl)cc2c2cc(Cl)ccc21 (configuration not stated)
CC50 [1]: 18800 nM | EC50 [2]: 56.3 nM | EC50 [3]: 258 nM

N=C1NC(=O)/C(=C/C=C/c2ccc([N+](=O)[O-])o2)S1
CC50 [1]: 17100 nM | EC50 [2]: 592 nM | EC50 [3]: 1080 nM

Cc1ccc(O)c(C(=O)c2c[nH]c(-c3nc4ccccc4[nH]3)c2)c1
CC50 [1]: 5650 nM | EC50 [2]: 2470 nM | EC50 [3]: 2880 nM

CN(C)CCNc1ncc(C(=O)NCc2ccccc2)c(NCCc2ccccc2)n1
CC50 [1]: > 10000 nM | EC50 [2]: 361 nM | EC50 [3]: 475 nM

COC(=O)C1=CNC=C(C(=O)OC)C1c1ccc(Cl)c([N+](=O)[O-])c1
CC50 [1]: > 100000 nM | EC50 [2]: 165 nM | EC50 [3]: 135 nM

Cc1nc2ccccc2c(O)c1CC=C(Cl)Cl
CC50 [1]: > 100000 nM | EC50 [2]: 514 nM | EC50 [3]: 498 nM

O=C(NCc1ccccc1)c1cnc(NCCCN2CCCC2)nc1NCC1CCCCC1
CC50 [1]: > 10000 nM | EC50 [2]: > 1250 nM | EC50 [3]: 733 nM

O=C1N(Cc2cc3ccccc3s2)CC2CN(Cc3ccc(F)c(F)c3)CCN12 (configuration not stated)
CC50 [1]: > 10000 nM | EC50 [2]: < 13.9 nM | EC50 [3]: 239 nM

COc1ccc(S(=O)(=O)NCC2CCC(C(=O)NCC(OC)OC)CC2)cc1 (configuration not stated)
CC50 [1]: > 10000 nM | EC50 [2]: > 1250 nM | EC50 [3]: > 1180 nM

CC1CCN(C(=O)C(C)N(c2ccccc2)S(C)(=O)=O)CC1 (configuration not stated)
CC50 [1]: > 100000 nM | EC50 [2]: 8320 nM | EC50 [3]: 7200 nM

C=CCNC(=O)c1cc2c(=O)n3cccc(C)c3nc2n(CCc2ccccc2)c1=N
CC50 [1]: > 100000 nM | EC50 [2]: 982 nM | EC50 [3]: 702 nM

CN(CCCNc1ccnc2cc(Cl)ccc12)C(=O)COCc1ccccc1
CC50 [1]: > 10000 nM | EC50 [2]: < 13.5 nM | EC50 [3]: 110 nM

CC(C)(C)c1ccc(C(=O)Nc2ccc(NC(=O)c3ccc(-c4ccc([N+](=O)[O-])cc4)o3)cc2)cc1
CC50 [1]: > 100000 nM | EC50 [2]: 3300 nM | EC50 [3]: 1210 nM
